Test results from patent EP4699605A1, “USE OF NOVEL COMPOUND FOR TREATING INTRACTABLE DISEASES” (YJ Cerapeutics Inc., priority 2023, dated 2024).

How the values were obtained:
mTOR pathway = test: Signaling pathway analysis in SNI model (Western blot): mTOR; format: in vivo, Sprague-Dawley rats; settings: 4 weeks after nerve injury
Experimental: To determine through which signaling pathway YJ102 inhibited a neuroinflammatory response, there was analyzed increased expression and activation of histone demethylase JMJD3 and expression changes of factors associated with JAK/STAT3 pathway, mTOR pathway, and TRPM7-mediated pathway, which were known as important regulatory mechanisms and epigenetic regulators mediating the neuroinflammatory response, in the tissues of the SNI animal model 4 weeks after nerve injury.

[1] = test system: IMQ psoriasis animal model; test: Spleen hypertrophy in IMQ psoriasis animal model; format: in vivo, C57BL/6 mouse; settings: Day 6, vs Vehicle group
Experimental: Psoriasis caused by excessive production of skin cells was a chronic skin disease associated with various factors, including autoimmune diseases, and its symptoms included red and thickened skin and abnormally occurring scaling. […] Specifically, the back region of a C57BL/6 mouse (male, 18 to 20 g, 8 weeks) (Daehan Biolink, Eumseong, Korea) was shaved to remove hair, and then applied with IMQ cream (83 mg/day) (5%) for consecutive 5 days from Day 0 to Day 4 to induce psoriasis-like skin inflammation, and a normal control mouse (Sham) was applied with Vaseline cream (FIG. 16A).
The spleen hypertrophy occurred in mice induced with psoriasis, the longitudinal diameter of the spleen in psoriasis patients was increased compared to that of non-psoriasis patients, and a correlation between the disease duration and the spleen diameter was reported. Therefore, on Day 6, the spleen of the mouse in each group was extracted and weighed to determine the degree of spleen hypertrophy.

inflammatory factors = test: Inflammatory factor expression in L4-5 spinal cord of SNI model (RT-PCR, Western blot); format: in vivo, Sprague-Dawley rats; settings: ipsilateral spinal cord tissue, 4 weeks after nerve injury, RT-PCR and Western blot
Experimental: To be used as a peripheral nerve injury animal model, a sciatic nerve injury (SNI) model was prepared (FIG. 1C). Specifically, 200 to 220 g of male adult Sprague-Dawley rats were anesthetized by intraperitoneal injection of chloral hydrate (500 mg/kg), and then three terminal branches (tibial, common peroneal, and sural nerves) of the right sciatic nerve were approached, and the tibia nerve and the peroneal nerve were tightly ligated with 4-0 silk, and neurectomy was performed at a distal 3 mm position of the ligation site. At this time, a Sham group was a group that exposed only the sciatic nerve without damage.
It was known that when neuropathic pain occurred, the activation of microglia and astrocytes expressed inflammatory factors including cytokines and chemokines to cause excessive excitation of surrounding neurons. Therefore, in order to confirm changes in inflammatory factor expression by YJ102 administration in the SNI animal model 4 weeks after nerve injury, RNA and protein were extracted from L4-5 spinal cord tissue and RT-PCR and Western blot analysis were performed. Specifically, for RT-PCR analysis, RNA was isolated from spinal cord tissue sections using a TRIZOL Reagent (Invitrogen) according to a manual, and 20 µl of the total mixture was prepared by using 1 µg of total RNA, and cDNA was synthesized using MMLV reverse transcriptase (Invitrogen). […]

Raw 264.7 = test: proNGF production in LPS-stimulated macrophage cell line; format: cell-based; settings: Raw 264.7 stimulated with 1 µg/ml of LPS; YJ102 treated 30 minutes before LPS
Experimental: (§1) In order to determine whether YJ102 affected the production of proNGF as a ligand of p75, the expression of proNGF in the bladder was confirmed by RT-PCR, Western blot analysis, and immunofluorescence staining. In addition, for further verification, a macrophage cell line Raw 264.7 (Korea Cell Line Bank, Seoul, Korea) was stimulated with 1 µg/ml of LPS, and the effect of YJ102 on the production of proNGF was investigated. At this time, YJ102 was dissolved in DMSO and treated 30 minutes before LPS treatment.

proNGF = test: NGF/proNGF expression in bladder after SCI (RT-PCR, Western blot); format: in vivo, Sprague-Dawley rats; settings: bladder tissue after spinal cord injury
Experimental: as §1

For `CCc1ccc(N(C(=O)COC)c2nc3cc(Cl)ccc3o2)cc1` [YJ102], the “activity of S6” value (mTOR pathway) was “inhibiting”, the “activity of p70S6kinase” value (mTOR pathway) was “inhibiting” and the “size of the spleen” value [1] was “significantly reduced”. The “weight of the spleen” value [1] was “significantly reduced”, the “expression of inflammatory factors” value (inflammatory factors) was “significantly reduced” and the “mRNA and protein expression of proNGF” value (Raw 264.7) was “significantly inhibited”. The “NGF mRNA expression” value (proNGF; RT-PCR) was “significantly inhibited” and the proNGF production (proNGF; Western blot) was “significantly inhibited”.
